Measurements published in patent US20210137990A1, “METHODS FOR EXP ANDING ADIPOSE-DERIVED STEM CELLS” (CELLECT BIOTHERAPEUTICS LTD., priority 2018, published 2021).
Entries after “also recorded” stand apart in the source; their conditions may differ. Residues, ends and D or L forms follow the SMILES beside them. *: point of attachment. Cbz = O=C(OCc1ccccc1)*; CH2F = FC*

Experiments:
[1] = test system: ASCs; test: ASC proliferation with Fas-L and inhibitors for 4 days, cell counts; assay type: cell-based, human
From the text: (§1) The dual effect of Fas-L on the apoptosis and proliferation of ASCs, can be mediated solely by canonical Fas-L signaling or through two distinct pathways. To distinguish between these possibilities, ASCs were either left untreated, treated with Fas-L only or treated simultaneously with Fas-L and with the pan-caspase inhibitor […], for 4 days. Importantly, to better evaluate the apoptotic cue of Fas-L, a different Fas-L derivative (mega-Fas-L), which induces high rates of apoptosis in passage 3 ASCs, was used in the current experiments. Sub-G1 proportions and cell numbers were determined by PI cell-cycle flow cytometry analysis and standard cell counts respectively. The experiment was repeated 3 times using cells from 3 independent patients.
Accordingly, cultured Passage 2-4 ASCs were treated with a combination of mega Fas-L, Z-VAD-fmk, LY294002 (PI3K inhibitor), AZD6244 (ERK-1/2 inhibitor) and SP600125 (JNK inhibitor) for 4 days.
After 4 days, cells were removed from plates by trypsin and cells were counted using a standard cell counter. The experiment was repeated 3 times using cells from 3 independent patients.
To test the effects of inhibitors on proliferation of mature ASCs (P2 and P3 ASCs), cells were seeded into 24-well plates (10.000 cells/well) and allowed to attach and grow for 24 h. Then, medium was exchanged for fresh normal growth medium or growth medium supplemented with Fas-L or with Fas-L and one of the inhibitors. Cells were then cultured for 4 days.
At the end of the incubation period, adherent cells were trypsinized, collected and counted with a TC10 Automated Cell Counter (Bio-rad).

[2] = test system: ASCs; test: ASC apoptosis with Fas-L and inhibitors for 4 days, sub-G1 by PI cell-cycle flow cytometry; assay type: cell-based, human; conditions: Z-VAD-fmk added to mega-Fas-L
From the text: as §1
Cells were harvested and fixed with 70% ethanol/PBS, treated with RNaseA 0.4 mg/ml (Sigma) and stained with propidium iodide (PI) 0.1 mg/ml (Sigma).
All labeled cells were analyzed using a FACS Canto II flow cytometer (Becton Dickinson, San Jose, Calif., USA). At least 10.000 events were recorded. Data analysis was performed using the FlowJo software (Tree Star, Ashland, Oreg., USA).

Row | Structure (SMILES) | ASC counts compared to cells treated with Fas-L only ([1]; P2-4 ASCs, mega Fas-L plus inhibitor, 4 days) | cell quantities ([1]; P2-4 ASCs, mega Fas-L, Z-VAD-fmk plus inhibitor, 4 days) | Fas-L-dependent proliferation of ASCs ([1]; inhibitor added to Fas-L) | cell yield ([1]; Fas-L and Z-VAD-fmk together, 4 days, vs untreated) | Fas-L-induced ASC proliferation ([1]; Z-VAD-fmk added to mega-Fas-L, 4 days) | cell expansion ([1]; Z-VAD-fmk only, 4 days) | Fas-L-induced apoptosis of ASCs (sub-G1) [2]
1 | Cn1cnc2c(F)c(Nc3ccc(Br)cc3Cl)c(C(=O)NOCCO)cc21 [AZD6244] | reduced ASC counts | comparable to untreated control | could be inhibited | – | – | – | –
2 | COC(=O)C[C@H](NC(=O)[C@H](C)NC(=O)[C@@H](NC(=O)OCc1ccccc1)C(C)C)C(=O)CF [Z-VAD-fmk] (Cbz-Val-Ala-Asp(OMe)-CH2F) | – | – | – | doubled cell yield | not affected; also recorded: without impacting; also recorded: minor to negligible effect | No such increased expansion | considerably attenuated; also recorded: near-complete inhibition
